Test results published in the supplement of paper PMC12420376.

How the values were obtained:
OVCAR8 = experiment: drug sensitivity score (DSS2) on cancer cell count; higher = more sensitive; extreme values may be limits of the assay; settings: 72 h
How it was run: (§1)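 Cancer cell counts came from 10× images (4 fields) of fixed cells immunostained for CK8/18 with Hoechst. The ovarian cancer cells had been grown alone or in 1:1 direct co-culture with lung or skin fibroblasts on 384-well plates pre-spotted acoustically with 528 approved and investigational compounds at 5 concentrations, then treated for 72 h. Breeze was used to derive a drug sensitivity score from logistic fits of the data.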

KURAMOCHI = experiment: as above; settings: 72 h
How it was run: as §1

[1] = co-cultured fibroblast: BJHTERT
[2] = co-cultured fibroblast: none (monoculture)

| SMILES | drug sensitivity score (OVCAR8; [1]) | drug sensitivity score (OVCAR8; co-cultured fibroblast: WI38) | drug sensitivity score (OVCAR8; [2]) | drug sensitivity score (KURAMOCHI; [1]) | drug sensitivity score (KURAMOCHI; co-cultured fibroblast: WI38) | drug sensitivity score (KURAMOCHI; [2]) |
| --- | --- | --- | --- | --- | --- | --- |
| CN(C)C/C=C/C(=O)Nc1cc2c(Nc3ccc(F)c(Cl)c3)ncnc2cc1O[C@H]1CCOC1 [Afatinib] | 3.1 DSS | 0 DSS | 2.4 DSS | 5.3 DSS | 5 DSS | 3.1 DSS |
| Cn1ncc(Cl)c1-c1cc(C(=O)N[C@H](CN)Cc2cccc(F)c2)sc1Cl [Afuresertib] | 0.3 DSS | 0 DSS | 0 DSS | 1.1 DSS | 0 DSS | 0 DSS |
| COc1cccc2c1C(=O)c1c(O)c3c(c(O)c1C2=O)C[C@@](O)(/C(CO)=N/NC(=O)CCCCCN1C(=O)C=CC1=O)C[C@@H]3O[C@H]1C[C@H](N)[C@H](O)[C@H](C)O1 [Aldoxorubicin] | 12.9 DSS | 11.7 DSS | 13.1 DSS | 13.3 DSS | 13.8 DSS | 19.1 DSS |
| CCc1cc2c(cc1N1CCC(N3CCOCC3)CC1)C(C)(C)c1[nH]c3cc(C#N)ccc3c1C2=O [Alectinib] | 0 DSS | 0 DSS | 0 DSS | 0 DSS | 0 DSS | 0 DSS |
| Oc1ncnc2[nH]ncc12 [Allopurinol] | 0 DSS | 0 DSS | 0 DSS | 0 DSS | 0 DSS | 0 DSS |
| Cc1nc(NC(=O)N2CCC[C@H]2C(N)=O)sc1-c1ccnc(C(C)(C)C(F)(F)F)c1 [Alpelisib] | 0 DSS | 0 DSS | 0.4 DSS | 0 DSS | 0 DSS | 0 DSS |
| CN1CC[C@H](c2c(O)cc(O)c3c(=O)cc(-c4ccccc4Cl)oc23)[C@H](O)C1 [Alvocidib] | 20.8 DSS | 21.6 DSS | 21 DSS | 19.3 DSS | 20.2 DSS | 20.9 DSS |
| CCN(CC)CCNC(=O)c1c(C)[nH]c(/C=C2\C(=O)Nc3ccc(-c4csc(-c5ccccc5)n4)cc32)c1C [Amcasertib] | 3.3 DSS | 3.1 DSS | 0 DSS | 8.1 DSS | 3.9 DSS | 6.7 DSS |
| CCC1(c2ccc(N)cc2)CCC(=O)NC1=O (configuration not stated) [Aminoglutethimide] | 0 DSS | 0.4 DSS | 0 DSS | 5.8 DSS | 0 DSS | 0 DSS |
| COc1cc(NS(C)(=O)=O)ccc1Nc1c2ccccc2nc2ccccc12 [Amsacrine] | 20.1 DSS | 19.2 DSS | 23.8 DSS | 14.4 DSS | 18.8 DSS | 21.8 DSS |
| S=C(NCc1ccc2c(c1)OCO2)N1CCN(c2ncnc3c2oc2ccccc23)CC1 [Amuvatinib] | 8.6 DSS | 0 DSS | 2.2 DSS | 2.5 DSS | 0.5 DSS | 0 DSS |
| O=C1CN2Cc3c(ccc(Cl)c3Cl)N=C2N1 [Anagrelide] | 0 DSS | 11.9 DSS | 0 DSS | 0 DSS | 0 DSS | 0 DSS |
| CC(C)(C#N)c1cc(Cn2cncn2)cc(C(C)(C)C#N)c1 [Anastrozole] | 0 DSS | 0 DSS | 0 DSS | 0 DSS | 0 DSS | 0 DSS |
| CNC(=O)c1ccc(N2C(=S)N(c3cnc(C#N)c(C(F)(F)F)c3)C(=O)C23CCC3)cc1F [Apalutamide] | 0 DSS | 0 DSS | 0 DSS | 0 DSS | 0 DSS | 0 DSS |
| N#CC1(c2ccc(NC(=O)c3cccnc3NCc3ccncc3)cc2)CCCC1 [Apatinib] | 0 DSS | 4.9 DSS | 2.2 DSS | 0 DSS | 0 DSS | 0 DSS |
| O=C(Nc1ccc(OC(F)(F)Cl)cc1)c1cnc(N2CC[C@@H](O)C2)c(-c2cc[nH]n2)c1 [Asciminib] | 0 DSS | 10.5 DSS | 0 DSS | 0 DSS | 0 DSS | 0 DSS |
| CC(C)c1c(C(=O)Nc2ccccc2)c(-c2ccccc2)c(-c2ccc(F)cc2)n1CC[C@@H](O)C[C@@H](O)CC(=O)O [Atorvastatin] | 4 DSS | 11.7 DSS | 6 DSS | 3.1 DSS | 2.1 DSS | 1.9 DSS |
| CC(=O)OC[C@H]1O[C@@H]([S-])[C@H](OC(C)=O)[C@@H](OC(C)=O)[C@@H]1OC(C)=O.CCP(CC)CC.[Au+] [Auranofin] | 12.1 DSS | 8.8 DSS | 7.3 DSS | 9.3 DSS | 7 DSS | 8.1 DSS |
| CNC(=O)c1ccccc1Sc1ccc2c(/C=C/c3ccccn3)n[nH]c2c1 [Axitinib] | 7.4 DSS | 5.6 DSS | 6.7 DSS | 8.7 DSS | 8.4 DSS | 7 DSS |
| Nc1ncn([C@@H]2O[C@H](CO)[C@@H](O)[C@H]2O)c(=O)n1 [Azacitidine] | 3.9 DSS | 1.5 DSS | 8.9 DSS | 2.8 DSS | 2.6 DSS | 9.3 DSS |
| Cc1cc(-c2nc(-c3ccc(OC(F)(F)F)cc3)no2)nn1Cc1ccnc(N2CCN(C3CC3)CC2)c1 [BAY 87-2243] | 31.1 DSS | 0 DSS | 4.8 DSS | 7.6 DSS | 0 DSS | 4.3 DSS |
| O=C1CCc2c(Oc3ccc4c(c3)[C@@H]3[C@H](O4)[C@H]3c3nc4cc(C(F)(F)F)ccc4[nH]3)ccnc2N1 [BGB-283] | 3.7 DSS | 13.4 DSS | 5.2 DSS | 6.9 DSS | 5.3 DSS | 4.7 DSS |
